Measured values taken from the Bradley open melting point set (2014).
Where “and” joins values, the source holds several entries; their conditions need not be identical. Equal values may be shown once. Where a name gives a salt, the structure may show the parent alone.

| SMILES | melting point |
| --- | --- |
| CCC1(C2=CCCCCC2)C(=O)NC(=O)NC1=O [heptabarbital] | 175 °C |
| CCCCCCCCCCCCCCCCC [heptadecane] | 22 °C |
| CCCCCCCCCCCCCCCCC(=O)O [heptadecanoic acid] | 61 °C |
| CCCCCCC [heptane] | -91 °C and -90.6 °C |
| CCCCCCC#N [heptanenitrile] | -64 °C |
| CCCCCCC(=O)O [heptanoic acid] | -8 °C |
| CCCCCCC(=O)O [heptanoic_acid] | -6 °C |
| ClC(Cl)=C(Cl)C(Cl)=C(Cl)Cl [hexachloro-1,3-butadiene] | -21 °C |
| ClC(Cl)(Cl)C(Cl)(Cl)Cl [hexachloroethane] | 192 °C |
| Cc1c(C)c(C)c(C)c(C)c1C [hexamethylbenzene] [listing 1 of 2 here] | 164 °C |
| Cc1c(C)c(C)c(C)c(C)c1C [hexamethylbenzene] [listing 2 of 2 here] | 164 °C and 168 °C |
| C[Si](C)(C)N[Si](C)(C)C [hexamethyldisilazane] | -78 °C |
| C[Si](C)(C)O[Si](C)(C)C [hexamethyldisiloxane] | -67 °C |
| CCCCCC=O [hexanal] | -56 °C |
| CCCCCC=O [hexanaldehyde] | -56 °C |
| CCCCCC(=O)O [hexanoic acid] | -3 °C |
| CCCCCC(=O)OC(=O)CCCCC [hexanoic anhydride] | -40 °C |
| CCCCCC(=O)O [hexanoic_acid] | -3 °C |
| CCCCCCC#N [hexyl_cyanide] | -63 °C |
| CCN(CC)CCNc1ccc(CO)c2sc3ccccc3c(=O)c12 [hycanthone] | 101 °C |
| NS(=O)(=O)c1cc2c(cc1C(F)(F)F)NCNS2(=O)=O [hydroflumethiazide] | 272 °C |
| O=C(O)CI [iodoacetic acid] | 81 °C |
| CCI [iodoethane] | -108 °C |
| CI [iodomethane] | -66 °C |
| ClC1C(Cl)C(Cl)C(Cl)C(Cl)C1Cl (stereo not given) [lindane] | 114 °C |
| Cl[C@H]1[C@H](Cl)[C@@H](Cl)[C@@H](Cl)[C@H](Cl)[C@H]1Cl [lindane] | 113 °C and 112 °C |

Now from value to molecule:

| melting point | SMILES |
| --- | --- |
| -17 °C | CC(=O)CO [hydroxyacetone] |
| 106 °C | N#Cc1ccc2[nH]ccc2c1 [indole-5-carbonitrile] |
| 96 °C | CCOC(=O)Cc1c(C)n(C(=O)c2ccc(Cl)cc2)c2ccc(OC)cc12 [indomethacin ethyl ester] |
| 159 °C and 160 °C | COc1ccc2c(c1)c(CC(=O)O)c(C)n2C(=O)c1ccc(Cl)cc1 [indomethacin] [listing 1 of 2 here] |
| 160 °C | COc1ccc2c(c1)c(CC(=O)O)c(C)n2C(=O)c1ccc(Cl)cc1 [indomethacin] [listing 2 of 2 here] |
| 61 °C | CC(C)c1ncc([N+](=O)[O-])n1C [ipronidazole] |
| -80 °C | CC(C)COC(=O)C(C)C [isobutyl_isobutyrate] |
| -8 °C | CC1=CC(=O)CC(C)(C)C1 [isophorone] |
| 89 °C | O=Cc1cccc(C=O)c1 [isophthalaldehyde] |
| -93 °C | CC(C)OC=O [isopropyl formate] |
| 112 °C | CC(C)S[C@@H]1O[C@H](CO)[C@H](O)[C@H](O)[C@H]1O [isopropyl-beta-d-thiogalactoside] |
| 146 °C | CC(=O)N1CCN(c2ccc(OC[C@H]3CO[C@](Cn4ccnc4)(c4ccc(Cl)cc4Cl)O3)cc2)CC1 [ketoconazol] |
| 277 °C | N[C@@H](Cc1ccc(O)c(O)c1)C(=O)O [l-dopa] |
| 142 °C | CCOC(=O)CSCCC1NC(C(=O)O)CS1 (stereo not given) [letosteine] |
| 159 °C | Cc1cccc(C)c1NC(=O)CN1CCN(CCCC(c2ccc(F)cc2)c2ccc(F)cc2)CC1 [lidoflazine] |
| 126 °C | CC(Oc1c(Cl)cccc1Cl)C1=NCCN1 (stereo not given) [lofexidine] |
| 240 °C | CCn1cc(C(=O)O)c(=O)c2cc(F)c(N3CCNC(C)C3)c(F)c21 (stereo not given) [lomefloxacin] |
| 238 °C | Clc1ccc(-c2nc3c4ccccc4ccn3n2)cc1 [lotrifen] |
| 95 °C | Nc1cccc(CO)c1 [m-amino_benzyl_alcohol] |
